Source: ChEMBL document CHEMBL4138123, “Design, synthesis and biological evaluation of novel pyrazolochalcones as potential modulators of PI3K/Akt/mTOR pathway and inducers of apoptosis in breast cancer cells” (Eur J Med Chem, 2017)

Assays:
Type in all cases: functional
K562 [1] = assay: Cytotoxicity against human K562 cells assessed as growth inhibition after 48 hrs by sulforhodamine B assay; conditions: K562, 48 h
COLO 205 = assay: Cytotoxicity against human COLO205 cells assessed as growth inhibition after 48 hrs by sulforhodamine B assay; conditions: COLO 205, 48 h
MDA-MB-435 [2] = assay: Cytotoxicity against human MDA-MB-435 cells assessed as growth inhibition after 48 hrs by sulforhodamine B assay; conditions: MDA-MB-435, 48 h
SN12C = assay: Cytotoxicity against human SN12C cells assessed as growth inhibition after 48 hrs by sulforhodamine B assay
T47D = assay: Cytotoxicity against human T47D cells assessed as growth inhibition after 48 hrs by sulforhodamine B assay
786-0 = assay: Cytotoxicity against human 786-0 cells assessed as cell growth at 0.01 uM after 48 hrs by sulforhodamine B assay relative to control; conditions: 786-0, 48 h, read-out: Activity
SK-OV-3 = assay: Cytotoxicity against human SKOV3 cells assessed as cell growth at 0.01 uM after 48 hrs by sulforhodamine B assay relative to control; conditions: SK-OV-3, 48 h, read-out: Activity
OVCAR-3 = assay: Cytotoxicity against human OVCAR3 cells assessed as cell growth at 0.01 uM after 48 hrs by sulforhodamine B assay relative to control; conditions: OVCAR-3, 48 h, read-out: Activity
IGROV-1 = assay: Cytotoxicity against human IGROV1 cells assessed as cell growth at 0.01 uM after 48 hrs by sulforhodamine B assay relative to control; conditions: IGROV-1, 48 h, read-out: Activity
UACC-257 = assay: Cytotoxicity against human UACC257 cells assessed as cell growth at 0.01 uM after 48 hrs by sulforhodamine B assay relative to control; conditions: UACC-257, 48 h, read-out: Activity
MDA-MB-435 [3] = assay: Cytotoxicity against human MDA-MB-435 cells assessed as cell growth at 0.01 uM after 48 hrs by sulforhodamine B assay relative to control; conditions: MDA-MB-435, 48 h, read-out: Activity
NCI-H23 [4] = assay: Cytotoxicity against human NCI-H23 cells assessed as cell growth at 0.01 uM after 48 hrs by sulforhodamine B assay relative to control; conditions: NCI-H23, 48 h, read-out: Activity
SR = assay: Cytotoxicity against human SR cells assessed as cell growth at 0.01 uM after 48 hrs by sulforhodamine B assay relative to control; conditions: read-out: Activity
NCI-H460 [5] = assay: Cytotoxicity against human NCI-H460 cells assessed as cell growth at 0.1 uM after 48 hrs by sulforhodamine B assay relative to control; conditions: NCI-H460, 48 h, read-out: Activity
KM12 = assay: Cytotoxicity against human KM12 cells assessed as cell growth at 0.1 uM after 48 hrs by sulforhodamine B assay relative to control; conditions: KM12, 48 h, read-out: Activity
Malme-3M [6] = assay: Cytotoxicity against human MALME-3M cells assessed as cell growth at 0.1 uM after 48 hrs by sulforhodamine B assay relative to control; conditions: read-out: Activity
TK-10 = assay: Cytotoxicity against human TK10 cells assessed as cell growth at 0.1 uM after 48 hrs by sulforhodamine B assay relative to control; conditions: TK-10, 48 h, read-out: Activity
BT-549 [7] = assay: Cytotoxicity against human BT549 cells assessed as cell growth at 0.1 uM after 48 hrs by sulforhodamine B assay relative to control; conditions: BT-549, 48 h, read-out: Activity
MDA-MB-468 = assay: Cytotoxicity against human MDA-MB-468 cells assessed as cell growth at 0.1 uM after 48 hrs by sulforhodamine B assay relative to control; conditions: MDA-MB-468, 48 h, read-out: Activity
NCI-H23 [8] = assay: Cytotoxicity against human NCI-H23 cells assessed as cell growth at 1 uM after 48 hrs by sulforhodamine B assay relative to control; conditions: NCI-H23, 48 h, read-out: Activity
NCI-H322M = assay: Cytotoxicity against human NCI-H322M cells assessed as cell growth at 1 uM after 48 hrs by sulforhodamine B assay relative to control; conditions: read-out: Activity
NCI-H460 [9] = assay: Cytotoxicity against human NCI-H460 cells assessed as cell growth at 1 uM after 48 hrs by sulforhodamine B assay relative to control; conditions: NCI-H460, 48 h, read-out: Activity
SF-539 = assay: Cytotoxicity against human SF539 cells assessed as cell growth at 1 uM after 48 hrs by sulforhodamine B assay relative to control; conditions: SF-539, 48 h, read-out: Activity
Malme-3M [10] = assay: Cytotoxicity against human MALME-3M cells assessed as cell growth at 1 uM after 48 hrs by sulforhodamine B assay relative to control; conditions: read-out: Activity
OVCAR-4 [11] = assay: Cytotoxicity against human OVCAR4 cells assessed as cell growth at 1 uM after 48 hrs by sulforhodamine B assay relative to control; conditions: OVCAR-4, 48 h, read-out: Activity
K562 [12] = assay: Cytotoxicity against human K562 cells assessed as cell growth at 10 uM after 48 hrs by sulforhodamine B assay relative to control; conditions: K562, 48 h, read-out: Activity
HOP-62 [13] = assay: Cytotoxicity against human HOP62 cells assessed as cell growth at 10 uM after 48 hrs by sulforhodamine B assay relative to control; conditions: HOP-62, 48 h, read-out: Activity
OVCAR-4 [14] = assay: Cytotoxicity against human OVCAR4 cells assessed as cell growth at 10 uM after 48 hrs by sulforhodamine B assay relative to control; conditions: OVCAR-4, 48 h, read-out: Activity
OVCAR-8 = assay: Cytotoxicity against human OVCAR8 cells assessed as cell growth at 10 uM after 48 hrs by sulforhodamine B assay relative to control; conditions: OVCAR-8, 48 h, read-out: Activity
BT-549 [15] = assay: Cytotoxicity against human BT549 cells assessed as cell growth at 10 uM after 48 hrs by sulforhodamine B assay relative to control; conditions: BT-549, 48 h, read-out: Activity
K562 [16] = assay: Cytotoxicity against human K562 cells assessed as cell growth at 100 uM after 48 hrs by sulforhodamine B assay relative to control; conditions: K562, 48 h, read-out: Activity
HOP-62 [17] = assay: Cytotoxicity against human HOP62 cells assessed as cell growth at 100 uM after 48 hrs by sulforhodamine B assay relative to control; conditions: HOP-62, 48 h, read-out: Activity
NCI-H226 = assay: Cytotoxicity against human NCI-H226 cells assessed as cell growth at 100 uM after 48 hrs by sulforhodamine B assay relative to control; conditions: NCI-H226, 48 h, read-out: Activity
SW-620 = assay: Cytotoxicity against human SW620 cells assessed as cell growth at 100 uM after 48 hrs by sulforhodamine B assay relative to control; conditions: SW-620, 48 h, read-out: Activity
OVCAR-5 = assay: Cytotoxicity against human OVCAR5 cells assessed as cell growth at 100 uM after 48 hrs by sulforhodamine B assay relative to control; conditions: OVCAR-5, 48 h, read-out: Activity
MCF7 = assay: Cytotoxicity against human MCF7 cells assessed as cell growth at 100 uM after 48 hrs by sulforhodamine B assay relative to control; conditions: MCF7, 48 h, read-out: Activity

Compound: COc1ccc(C(=O)/C=C/c2cc(-c3cc(OC)c(OC)c(OC)c3)n[nH]2)cc1OC
- LC50 (concentration killing 50% of cells) (K562 [1]): > 100 µM
- TGI (K562 [1]): 7.12 µM
- LC50 (COLO 205): 5.92 µM
- TGI (COLO 205): 3.21 µM
- LC50 (MDA-MB-435 [2]): 5.52 µM
- TGI (MDA-MB-435 [2]): 2.71 µM
- LC50 (SN12C): 6.37 µM
- TGI (SN12C): 3.13 µM
- LC50 (T47D): > 100 µM
- TGI (T47D): 4.36 µM
- growth at 0.01 µM (786-0): 96%
- growth at 0.01 µM (SK-OV-3): 100%
- growth at 0.01 µM (OVCAR-3): 100%
- growth at 0.01 µM (IGROV-1): 98%
- growth at 0.01 µM (UACC-257): 85%
- growth at 0.01 µM (MDA-MB-435 [3]): 95%
- growth at 0.01 µM (NCI-H23 [4]): 93%
- growth at 0.01 µM (SR): 100%
- growth at 0.1 µM (NCI-H460 [5]): 101%
- growth at 0.1 µM (KM12): 92%
- growth at 0.1 µM (Malme-3M [6]): 92%
- growth at 0.1 µM (TK-10): 90%
- growth at 0.1 µM (BT-549 [7]): 90%
- growth at 0.1 µM (MDA-MB-468): 89%
- growth at 1 µM (NCI-H23 [8]): 93%
- growth at 1 µM (NCI-H322M): 83%
- growth at 1 µM (NCI-H460 [9]): 70%
- growth at 1 µM (SF-539): 67%
- growth at 1 µM (Malme-3M [10]): 106%
- growth at 1 µM (OVCAR-4 [11]): 70%
- growth at 10 µM (K562 [12]): -13%
- growth at 10 µM (HOP-62 [13]): -97%
- growth at 10 µM (OVCAR-4 [14]): 23%
- growth at 10 µM (OVCAR-8): -89%
- growth at 10 µM (BT-549 [15]): -88%
- growth at 100 µM (K562 [16]): -15%
- growth at 100 µM (HOP-62 [17]): -98%
- growth at 100 µM (NCI-H226): -49%
- growth at 100 µM (SW-620): -67%
- growth at 100 µM (OVCAR-5): -71%
- growth at 100 µM (MCF7): -66%

Compound: COc1ccc(-c2cc(/C=C/C(=O)c3ccc(N)cc3)[nH]n2)cc1
- GI50 (K562 [1]): 1.42 µM
- LC50 (concentration killing 50% of cells) (K562 [1]): 69.7 µM
- TGI (K562 [1]): 11.6 µM
- GI50 (COLO 205): 1.85 µM
- LC50 (COLO 205): 6.41 µM
- TGI (COLO 205): 3.45 µM
- GI50 (MDA-MB-435 [2]): 2.24 µM
- LC50 (MDA-MB-435 [2]): 38.2 µM
- TGI (MDA-MB-435 [2]): 7 µM
- GI50 (SN12C): 1.89 µM
- LC50 (SN12C): 34.9 µM
- TGI (SN12C): 6.63 µM
- GI50 (T47D): 1.47 µM
- LC50 (T47D): 85.8 µM
- TGI (T47D): 9.77 µM
- growth at 0.01 µM (786-0): 96%
- growth at 0.01 µM (SK-OV-3): 101%
- growth at 0.01 µM (OVCAR-3): 104%
- growth at 0.01 µM (IGROV-1): 98%
- growth at 0.01 µM (UACC-257): 96%
- growth at 0.01 µM (MDA-MB-435 [3]): 97%
- growth at 0.01 µM (NCI-H23 [4]): 92%
- growth at 0.01 µM (SR): 94%
- growth at 0.1 µM (NCI-H460 [5]): 102%
- growth at 0.1 µM (KM12): 97%
- growth at 0.1 µM (Malme-3M [6]): 86%
- growth at 0.1 µM (TK-10): 95%
- growth at 0.1 µM (BT-549 [7]): 96%
- growth at 0.1 µM (MDA-MB-468): 86%
- growth at 1 µM (NCI-H23 [8]): 93%
- growth at 1 µM (NCI-H322M): 69%
- growth at 1 µM (NCI-H460 [9]): 92%
- growth at 1 µM (SF-539): 72%
- growth at 1 µM (Malme-3M [10]): 87%
- growth at 1 µM (OVCAR-4 [11]): 52%
- growth at 10 µM (K562 [12]): 4%
- growth at 10 µM (HOP-62 [13]): -15%
- growth at 10 µM (OVCAR-4 [14]): -6%
- growth at 10 µM (OVCAR-8): 9%
- growth at 10 µM (BT-549 [15]): -37%
- growth at 100 µM (K562 [16]): -60%
- growth at 100 µM (HOP-62 [17]): -60%
- growth at 100 µM (NCI-H226): -51%
- growth at 100 µM (SW-620): -58%
- growth at 100 µM (OVCAR-5): -86%
- growth at 100 µM (MCF7): -68%
